Measurements published in publication PMC11892125 (BMC Chemistry, 2025).

Molecular target: b-CA-II (bovine carbonic anhydrase II) (Bos taurus, UniProt P00921)
Assay: p-nitrophenyl acetate esterase assay, bovine enzyme, absorbance at […] nm
Format: biochemical

b-CA-II (bovine carbonic anhydrase II), sequence (P00921 2-260): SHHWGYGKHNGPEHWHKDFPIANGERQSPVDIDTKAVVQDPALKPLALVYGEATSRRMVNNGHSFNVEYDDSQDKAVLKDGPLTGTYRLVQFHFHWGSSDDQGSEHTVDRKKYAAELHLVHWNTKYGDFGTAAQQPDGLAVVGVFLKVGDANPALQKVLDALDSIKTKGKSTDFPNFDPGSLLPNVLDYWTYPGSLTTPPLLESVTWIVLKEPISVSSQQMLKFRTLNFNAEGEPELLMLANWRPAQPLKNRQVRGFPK

IC50: 147 ± 30 nM
SMILES: CCCCCCCC1(O)CS/C(=N\C(=O)c2ccc(Br)cc2)N1c1ccccc1-c1ccccc1 (stereo not shown) [compound 5, (Z)-N-(3-([1,1'-biphenyl]-2-yl)-4-heptyl-4-hydroxythiazolidin-2-ylidene)-4-bromobenzamide]
